What was measured:
Type in all cases: cell-based
[1] = tested on: Klebsiella pneumoniae (NCTC 13438); assay: Checkerboard/MIC assay with rifampicin
Description: (§1) The 17 test strains/isolates were: (1) Serratia marcescens (ATCC 13880); (2) Salmonella typhimurium (ATCC 13311); (3) Salmonella choleraesuis (ATCC 10708); (4) Acinetobacter baumannii (ATCC BAA-1605); (5) A. baumannii (ATCC 17978); (6) A. baumannii (FDA-CDC AR-BANK#0088); (7) Citrobacter freundii (ATCC 8090); (8) Pseudomonas aeruginosa (BCCM 27647); (9) P. aeruginosa (BCCM 27648); (10) Escherichia coli (ATCC 25922); (11) E. coli (ATCC 10536); (12) Stenotrophomonas maltophilia (ATCC 13637); (13) Enterobacter cloacae (ATCC BAA-1143); (14) E. cloacae (ATCC 13047); (15) E. aerogenes (ATCC 13048); (16) Klebsiella pneumoniae (NCTC 13438); and (17) Klebsiella pneumoniae (FDA-CDC AR-BANK#0160). These bacterial strains were obtained from the American Type Culture Collection (ATCC, Rockville, MD, USA); Belgian Coordinated Collections of Microorganisms; The Culture Collections of Public Health England, UK; and FDA-CDC anticimrobial Resistance Isolate Bank, USA, and cryopreserved as single-use frozen working stock cultures which were stored at −80° C.
(§2) The 17 test strains were grown on nutrient agar or tryptic soy agar (TSA) medium as below. Colonies were suspended in phosphate buffered saline (PBS) pH 7.4. The absorbance of the bacterial suspension was measured with a spectrophotometer at OD620nm, and then the suspension was adjusted to 1-2×10^8 CFU/mL in PBS. The adjusted suspension was further diluted 1:500 in cation-adjusted Mueller-Hinton Broth. Each well contained approximately 5×10^5 CFU/mL. […] The testing inoculum was prepared within minutes before adding to wells of the test plate.
(§3) Compound 3 was tested in 8 points by two-fold serial titrations from 100 to 0.78 μg/mL. […] Assay plates were incubated and MIC endpoints were read as complete inhibition of visual growth. The checkerboard combination analysis was performed following the MIC testing protocol to identify potential synergistic, indifferent or antagonistic interactions. The analysis also included each test substance alone at the same concentration ranges.
(§4) FIC (Fraction Inhibitory Concentration) and FIC Index (FICI) values for each test condition and the average of FICI values of all pairwise combinations were calculated to determine if synergy or antagonism existed between the two substances. The FIC index was determined by calculating the sum of the ratios of MICs (minimum inhibitory concentrations) for both substances. […] Synergy is defined as the FICI (Σ)≤0.5; additivity or indifference are defined as the FICI (Σ)>0.5 to ≤4; antagonism is defined as the FICI (Σ)>4. The two fold of highest test article concentration was used for FIC value calculations in the circumstances where MIC values were greater than the highest test article concentration.

[2] = tested on: Stenotrophomonas maltophilia (ATCC 13637); assay: Checkerboard/MIC assay with rifampicin
Description: as §1, §2, §3, §4

[3] = tested on: A. baumannii (ATCC 17978); assay: Checkerboard/MIC assay with rifampicin; settings: Acinetobacter baumannii ATCC 17978
Description: as §1, §2, §3, §4

[4] = tested on: Klebsiella pneumoniae (FDA-CDC AR-BANK#0160); assay: Checkerboard/MIC assay with rifampicin; settings: Klebsiella pneumoniae AR-BANK#0160
Description: as §1, §2, §3, §4

[5] = tested on: Citrobacter freundii (ATCC 8090); assay: Checkerboard/MIC assay with rifampicin
Description: as §1, §2, §3, §4

[6] = tested on: Escherichia coli (ATCC 25922); assay: Checkerboard/MIC assay with rifampicin
Description: as §1, §2, §3, §4

[7] = tested on: Serratia marcescens (ATCC 13880); assay: Checkerboard/MIC assay with rifampicin
Description: as §1, §2, §3, §4

[8] = tested on: Enterobacter cloacae (ATCC BAA-1143); assay: Checkerboard/MIC assay with rifampicin; settings: Enterobacter cloacae BAA-1143
Description: as §1, §2, §3, §4

[9] = tested on: Salmonella choleraesuis (ATCC 10708); assay: Checkerboard/MIC assay with rifampicin; settings: Salmonella choleraesuis ATCC 10708
Description: as §1, §2, §3, §4

[10] = tested on: A. baumannii (FDA-CDC AR-BANK#0088); assay: Checkerboard/MIC assay with rifampicin; settings: Acinetobacter baumannii AR-BANK 0088
Description: as §1, §2, §3, §4

[11] = tested on: Salmonella typhimurium (ATCC 13311); assay: Checkerboard/MIC assay with rifampicin; settings: Salmonella typhimurium ATCC13311
Description: as §1, §2, §3, §4

[12] = tested on: E. cloacae (ATCC 13047); assay: Checkerboard/MIC assay with rifampicin; settings: Enterobacter cloacae ATCC-13047
Description: as §1, §2, §3, §4

[13] = tested on: NCI H69 cells; assay: CellTiter-Glo cell viability assay (cytotoxicity), 8 days; settings: Homo sapiens, 192 h, full growth media
Experimental: The experiment tested pentamidine, Compounds 1-6 in full growth media for 8 days. NCI H69 cells were initially treated with the test compounds on Day 0, and the cells were then replenished with fresh compound dilutions on Day 3. Pentamidine and Compound 1 were tested at 9 concentration points: 100 μM, 33.33 μM, 11.11 μM, 3.70 μM, 1.23 μM, […], 0.05 μM, and 0.02 μM (final DMSO concentration=0.5%). The raw data values from the CellTiter-Glo™ cell viability assay expressed in relative luminescence units were normalized to the vehicle for each individual plate, and any reduction in luminescence indicated a decrease in viability (%). The data was analyzed in GraphPad PRISM using a non-linear sigmoidal plot with variable slope (asymmetric four-point […]), and an IC50 value for each compound was generated based on the normalized dose-response curves and shown in Table 1.

[14] = compound 3 in combination with rifampicin

Question: N=C(N)c1ccc(CC[C@H]2CCC[C@@H](CCc3ccc(C(=N)N)cc3)C2)cc1 [Compound 3, 4,4′-(2,2′-((1R,3S)-cyclohexane-1,3-diyl)bis(ethane-2,1-diyl))dibenzimidamide] was tested. Which MIC ([1]; NCTC13438, substance alone) did it give?
Answer: 50 µg/mL

Question: What about the “Combination Result” value [1, 14] of the same compound?
Answer: synergy (Synergy is defined as the FICI (Σ)≤0.5)

Question: What about the “FICI (Average)” value [1, 14] of the same compound?
Answer: 0.22

Question: What about the MIC ([2]; ATCC13637, substance alone) of the same compound?
Answer: 12.5 µg/mL

Question: What about the “Combination Result” value [2, 14] of the same compound?
Answer: synergy (Synergy is defined as the FICI (Σ)≤0.5)

Question: What about the “FICI (Average)” value [2, 14] of the same compound?
Answer: 0.39

Question: And the MIC ([3]; ATCC17978, substance alone)?
Answer: 25 µg/mL

Question: What about the “Combination Result” value [3, 14] of the same compound?
Answer: synergy (Synergy is defined as the FICI (Σ)≤0.5)

Question: And the “FICI (Average)” value [3, 14]?
Answer: 0.27

Question: And the “Combination Result” value [4, 14]?
Answer: synergy (Synergy is defined as the FICI (Σ)≤0.5)

Question: What about the “FICI (Average)” value [4, 14] of the same compound?
Answer: 0.19

Question: And the MIC ([4]; substance alone)?
Answer: 100 µg/mL

Question: And the MIC ([5]; ATCC8090, substance alone)?
Answer: 100 µg/mL

Question: And the “Combination Result” value [5, 14]?
Answer: synergy (Synergy is defined as the FICI (Σ)≤0.5)

Question: What about the “FICI (Average)” value [5, 14] of the same compound?
Answer: 0.19

Question: And the MIC ([6]; ATCC25922, substance alone)?
Answer: 6.25 µg/mL

Question: What about the “Combination Result” value [6, 14] of the same compound?
Answer: additivity/

Question: And the “FICI (Average)” value [6, 14]?
Answer: 0.52

Question: And the MIC ([7]; ATCC13880, substance alone)?
Answer: > 100 µg/mL

Question: What about the “Combination Result” value [7, 14] of the same compound?
Answer: synergy (Synergy is defined as the FICI (Σ)≤0.5)

Question: What about the “FICI (Average)” value [7, 14] of the same compound?
Answer: 0.21

Question: What about the “Combination Result” value [8, 14] of the same compound?
Answer: synergy (Synergy is defined as the FICI (Σ)≤0.5)

Question: And the “FICI (Average)” value [8, 14]?
Answer: 0.19

Question: And the MIC ([8]; substance alone)?
Answer: 100 µg/mL

Question: What about the MIC ([9]; Salmonella enterica, substance alone, read-out: MIC) of the same compound?
Answer: 50 µg/mL

Question: What about the “Combination Result” value [9, 14] of the same compound?
Answer: synergy (Synergy is defined as the FICI (Σ)≤0.5)

Question: What about the “FICI (Average)” value [9, 14] of the same compound?
Answer: 0.32

Question: What about the “Combination Result” value [10, 14] of the same compound?
Answer: synergy (Synergy is defined as the FICI (Σ)≤0.5)

Question: And the “FICI (Average)” value [10, 14]?
Answer: 0.31

Question: What about the MIC ([10]; substance alone) of the same compound?
Answer: 25 µg/mL

Question: What about the MIC ([11]; Salmonella enterica, substance alone) of the same compound?
Answer: 12.5 µg/mL

Question: And the “Combination Result” value [11, 14]?
Answer: synergy (Synergy is defined as the FICI (Σ)≤0.5)

Question: And the “FICI (Average)” value [11, 14]?
Answer: 0.34

Question: And the MIC ([12]; ATCC13047, substance alone)?
Answer: 100 µg/mL

Question: And the “Combination Result” value [12, 14]?
Answer: synergy (Synergy is defined as the FICI (Σ)≤0.5)

Question: What about the “FICI (Average)” value [12, 14] of the same compound?
Answer: 0.19

Question: And the IC50 [13]?
Answer: 0.8 µM

Reference: patent publication US20230391727A1, “ANALOGUES OF PENTAMIDINE AND METHODS FOR TREATING INFECTIONS” (Auransa Inc., priority 2020, published 2023)
